Patent US11339171B2, “MDM2 inhibitors” (Gan & Lee Pharmaceuticals, priority 2017, dated 2022)
Several values for one entry are separate records, joined by “and”; a condition that tells them apart may be missing. Identical values can stand only once. Like-named read-outs stand apart in the source and are kept apart here.

Columns and labels:
MDM2 = target: T1, MDM2 (Homo sapiens, UniProt Q00987); assay: Inhibition test of MDM2-P53 (GST-MDM2, Biotin-P53, Anti-GST-Tb, SA-XL665); format: binding
T1 construct: made in house
Method in brief: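 HTRF-type assay using 4 nM GST-MDM2 (final), Biotin-P53, SA-XL665 and anti-GST-Tb in PBS with 0.1% BSA, 5 mM DTT and 1 mM AEBSF. Compounds in 5-fold serial dilutions over twelve points; incubation 90 min at 25° C with shaking before plate-reader read-out.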

[1] = test system: human osteosarcoma cell line SJSA-1; assay: Inhibition of proliferation of human osteosarcoma cell line SJSA-1 (DAPI staining, In Cell Analyzer); conditions: Homo sapiens, SJSA-1, 72 h, read-out: IC50 (nM), inhibitory activity on proliferation of human osteosarcoma cell line SJSA-1, SJSA-1, incubated 72 h
[2] = Pharmacokinetics in ICR mice after intravenous and intragastric administration; format: in vivo; conditions: for MRT last: read-out: MRT(0-t); for MRT inf: read-out: MRT(0-∞); for Vd: read-out: Vz
Method in brief: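 Male ICR mice aged 6-9 weeks are dosed after an overnight fast, intravenously at 2 mg/kg and orally by gavage at 5 mg/kg. Plasma drug is measured by LC-MS/MS over a 1-2000 ng/ml range.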

[3] = ICR mice, IV 2 mg/kg, individual animal, 2 mg/kg
[4] = ICR mice, PO 5 mg/kg, individual animal, 5 mg/kg
[5] = male, ICR, mouse, plasma, iv, 2 mg/kg, ICR mice, IV 2 mg/kg, individual animal
[6] = male, ICR, mouse, plasma, iv, 2 mg/kg, ICR mice, IV 2 mg/kg, mean of 3 animals
[7] = male, ICR, mouse, plasma, iv, 2 mg/kg, ICR mice, IV 2 mg/kg, mean of 3 animals, read-out: AUC(0-t)
[8] = male, ICR, mouse, plasma, iv, 2 mg/kg, ICR mice, IV 2 mg/kg, mean of 3 animals, read-out: Cmax
[9] = male, ICR, mouse, plasma, iv, 2 mg/kg, ICR mice, IV 2 mg/kg, mean of 3 animals, read-out: Tmax
[10] = male, ICR, mouse, plasma, iv, 2 mg/kg, ICR mice, IV 2 mg/kg, mean of 3 animals, read-out: t1/2 (converted)
[11] = male, ICR, mouse, plasma, po, 5 mg/kg, ICR mice, PO 5 mg/kg, individual animal
[12] = male, ICR, mouse, plasma, po, 5 mg/kg, ICR mice, PO 5 mg/kg, mean of 3 animals
[13] = male, ICR, mouse, plasma, po, 5 mg/kg, ICR mice, PO 5 mg/kg, mean of 3 animals, read-out: AUC(0-t)
[14] = male, ICR, mouse, plasma, po, 5 mg/kg, ICR mice, PO 5 mg/kg, mean of 3 animals, read-out: Cmax
[15] = male, ICR, mouse, plasma, po, 5 mg/kg, ICR mice, PO 5 mg/kg, mean of 3 animals, read-out: Tmax
[16] = male, ICR, mouse, plasma, po, 5 mg/kg, ICR mice, PO 5 mg/kg, mean of 3 animals, read-out: t1/2 (converted)
[17] = male, ICR, mouse, plasma, po, 5 mg/kg, oral intragastric administration 5 mg/kg, read-out: AUC0-t
[18] = ICR mice, IV 2 mg/kg, individual animals 301-303, 2 mg/kg
[19] = ICR mice, PO 5 mg/kg, individual animals 401-403, 5 mg/kg
[20] = male, ICR, mouse, plasma, iv, 2 mg/kg, ICR mice, IV 2 mg/kg, individual animals 301-303
[21] = male, ICR, mouse, plasma, po, 5 mg/kg, ICR mice, PO 5 mg/kg, individual animals 401-403

T1 sequence (Q00987 whole entry): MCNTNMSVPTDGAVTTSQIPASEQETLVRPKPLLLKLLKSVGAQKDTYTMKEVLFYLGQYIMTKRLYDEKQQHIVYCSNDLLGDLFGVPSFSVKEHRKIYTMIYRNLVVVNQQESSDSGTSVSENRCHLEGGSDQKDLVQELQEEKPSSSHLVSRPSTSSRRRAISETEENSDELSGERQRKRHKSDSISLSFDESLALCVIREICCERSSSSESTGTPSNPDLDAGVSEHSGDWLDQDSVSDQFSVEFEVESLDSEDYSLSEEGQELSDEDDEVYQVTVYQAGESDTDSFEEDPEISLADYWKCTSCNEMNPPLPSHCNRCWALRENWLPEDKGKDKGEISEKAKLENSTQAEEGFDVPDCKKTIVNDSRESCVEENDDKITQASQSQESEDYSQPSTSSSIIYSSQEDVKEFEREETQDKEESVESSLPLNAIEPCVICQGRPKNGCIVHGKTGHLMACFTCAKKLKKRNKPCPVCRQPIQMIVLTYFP

COc1cc(OC)c(-c2nc3c(n2C(C)C)[C@@]2(C(=O)Nc4cc(Cl)ccc42)N(c2cc(Cl)ccc2F)C3=O)cn1 [Example S-133, (S)-6-chloro-5′-(5-chloro-2-fluorophenyl)-2′-(4,6-dimethoxypyridin-3-yl)-3′-isopropyl-3′H-spiro[dihydroindole-3,4′-pyrrolo[3,4-d]imidazole]-2,6′(5′H)-dione]
IC50 (MDM2): 1.41 nM
IC50 [1]: 99.8 nM
AUC(0-t) [2, 3]: 3187.22 ng·h/mL and 2904.29 ng·h/mL
AUC(0-∞) [2, 3]: 3247.82 ng·h/mL and 3022.24 ng·h/mL
CL [2, 3]: 10.26 mL/min/kg and 11.03 mL/min/kg
Cmax [2, 3]: 2521.09 ng/mL and 2055.95 ng/mL
MRT(0-t) [2, 3]: 1.05 h and 1.20 h
MRT(0-∞) [2, 3]: 1.17 h and 1.45 h
Vz [2, 3]: 1.01 L/kg and 1.16 L/kg
t1/2 [2, 3]: 1.13 h and 1.22 h
AUC(0-t) [2, 4]: 4282.62 ng·h/mL and 5953.82 ng·h/mL
AUC(0-∞) [2, 4]: 4314.80 ng·h/mL and 5994.87 ng·h/mL
Cmax [2, 4]: 1489.30 ng/mL and 2195.02 ng/mL
MRT(0-t) [2, 4]: 2.17 h and 2.05 h
MRT(0-∞) [2, 4]: 2.22 h and 2.10 h
t1/2 [2, 4]: 1.05 h and 1.04 h
AUC(0-inf) [2, 5]: 4700 ng·h/mL
clearance [2, 5]: 7.09 mL/min/kg
AUC(0-t) ([2]; male, ICR, mouse, plasma, iv, 2 mg/kg, ICR mice, IV 2 mg/kg, individual animal, read-out: AUC(0-t)): 4600 ng·h/mL
Cmax ([2]; male, ICR, mouse, plasma, iv, 2 mg/kg, ICR mice, IV 2 mg/kg, individual animal, read-out: Cmax): 2980 ng/mL
MRT last [2, 5]: 1.18 h
MRT inf [2, 5]: 1.31 h
Tmax ([2]; male, ICR, mouse, plasma, iv, 2 mg/kg, ICR mice, IV 2 mg/kg, individual animal, read-out: Tmax): 0.08 h
Vd [2, 5]: 0.66 L/kg
half-life ([2]; male, ICR, mouse, plasma, iv, 2 mg/kg, ICR mice, IV 2 mg/kg, individual animal, read-out: t1/2 (converted)): 1.07 h
AUC(0-inf) [2, 6]: 3660 ng·h/mL
clearance [2, 6]: 9.46 mL/min/kg
AUC(0-t) [2, 7]: 3560 ng·h/mL
Cmax [2, 8]: 2520 ng/mL
MRT last [2, 6]: 1.14 h
MRT inf [2, 6]: 1.31 h
Tmax [2, 9]: 0.083 h
Vd [2, 6]: 0.94 L/kg
half-life [2, 10]: 1.14 h
AUC(0-inf) [2, 11]: 6150 ng·h/mL
AUC(0-t) ([2]; male, ICR, mouse, plasma, po, 5 mg/kg, ICR mice, PO 5 mg/kg, individual animal, read-out: AUC(0-t)): 6070 ng·h/mL
Cmax ([2]; male, ICR, mouse, plasma, po, 5 mg/kg, ICR mice, PO 5 mg/kg, individual animal, read-out: Cmax): 1570 ng/mL
MRT last [2, 11]: 2.34 h
MRT inf [2, 11]: 2.43 h
Tmax ([2]; male, ICR, mouse, plasma, po, 5 mg/kg, ICR mice, PO 5 mg/kg, individual animal, read-out: Tmax): 1 h
half-life ([2]; male, ICR, mouse, plasma, po, 5 mg/kg, ICR mice, PO 5 mg/kg, individual animal, read-out: t1/2 (converted)): 1.15 h
AUC(0-inf) [2, 12]: 5490 ng·h/mL
AUC(0-t) [2, 13]: 5440 ng·h/mL
Cmax [2, 14]: 1750 ng/mL
MRT last [2, 12]: 2.19 h
MRT inf [2, 12]: 2.25 h
Tmax [2, 15]: 1 h
half-life [2, 16]: 1.08 h
AUC(0-t) [2, 17]: 5440 ng·h/mL
bioavailability ([2]; male, mouse, plasma, ICR mice, PO 5 mg/kg vs IV 2 mg/kg, from mean values, read-out: F* (bioavailability)): 61%

CCOc1ncc(-c2nc3c(n2C(C)C)[C@@]2(C(=O)Nc4cc(Cl)ccc42)N(c2cc(Cl)cnc2C)C3=O)c(OC)n1 [Example S-134, (S)-6-chloro-5′-(5-chloro-2-methylpyridin-3-yl)-2′-(2-ethoxy-4-methoxypyrimidin-5-yl)-3′-isopropyl-3′H-spiro[dihydroindole-3,4′-pyrrolo[3,4-d]imidazole]-2,6′(5′H)-dione]
IC50 (MDM2): 2.6 nM
IC50 [1]: 82.2 nM
AUC(0-t) [2, 18]: 7289.25 ng·h/mL and 6534.27 ng·h/mL
AUC(0-∞) [2, 18]: 7419.12 ng·h/mL and 6880.52 ng·h/mL
CL [2, 18]: 4.49 mL/min/kg and 4.84 mL/min/kg
Cmax [2, 18]: 4224.01 ng/mL and 3408.57 ng/mL
MRT(0-t) [2, 18]: 1.28 h and 1.50 h
MRT(0-∞) [2, 18]: 1.39 h and 1.83 h
Tmax [2, 18]: 0.08 h and 0.25 h
Vz [2, 18]: 0.42 L/kg and 0.61 L/kg
t1/2 [2, 18]: 1.07 h and 1.47 h
F* ([2]; ICR mice, PO 5 mg/kg vs IV 2 mg/kg, mean): 47.70%
AUC(0-t) [2, 19]: 7889.97 ng·h/mL and 4859.23 ng·h/mL
AUC(0-∞) [2, 19]: 8123.13 ng·h/mL and 4978.41 ng·h/mL
Cmax [2, 19]: 3905.15 ng/mL and 3059.53 ng/mL and 1591.65 ng/mL
MRT(0-t) [2, 19]: 2.21 h
MRT(0-∞) [2, 19]: 2.28 h and 2.40 h
Tmax [2, 19]: 0.25 h
t1/2 [2, 19]: 1.54 h and 1.43 h
AUC(0-inf) [2, 20]: 5060 ng·h/mL
clearance [2, 20]: 6.59 mL/min/kg
AUC(0-t) ([2]; male, ICR, mouse, plasma, iv, 2 mg/kg, ICR mice, IV 2 mg/kg, individual animals 301-303, read-out: AUC(0-t)): 5020 ng·h/mL
Cmax ([2]; male, ICR, mouse, plasma, iv, 2 mg/kg, ICR mice, IV 2 mg/kg, individual animals 301-303, read-out: Cmax): 3520 ng/mL
MRT last [2, 20]: 1.17 h
MRT inf [2, 20]: 1.23 h
Vd [2, 20]: 0.53 L/kg
half-life ([2]; male, ICR, mouse, plasma, iv, 2 mg/kg, ICR mice, IV 2 mg/kg, individual animals 301-303, read-out: t1/2 (converted)): 0.93 h
AUC(0-inf) [2, 6]: 6450 ng·h/mL
clearance [2, 6]: 5.31 mL/min/kg
AUC(0-t) [2, 7]: 6280 ng·h/mL
Cmax [2, 8]: 3720 ng/mL
MRT last [2, 6]: 1.32 h
MRT inf [2, 6]: 1.48 h
Tmax [2, 9]: 0.14 h
Vd [2, 6]: 0.52 L/kg
half-life [2, 10]: 1.15 h
AUC(0-inf) [2, 21]: 9930 ng·h/mL
AUC(0-t) ([2]; male, ICR, mouse, plasma, po, 5 mg/kg, ICR mice, PO 5 mg/kg, individual animals 401-403, read-out: AUC(0-t)): 9720 ng·h/mL
MRT last [2, 21]: 2.04 h
MRT inf [2, 21]: 2.21 h
Tmax ([2]; male, ICR, mouse, plasma, po, 5 mg/kg, ICR mice, PO 5 mg/kg, individual animals 401-403, read-out: Tmax): 0.5 h
half-life ([2]; male, ICR, mouse, plasma, po, 5 mg/kg, ICR mice, PO 5 mg/kg, individual animals 401-403, read-out: t1/2 (converted)): 1.38 h
AUC(0-inf) [2, 12]: 7680 ng·h/mL
AUC(0-t) [2, 13]: 7490 ng·h/mL
Cmax [2, 14]: 2850 ng/mL
MRT last [2, 12]: 2.1 h
MRT inf [2, 12]: 2.29 h
Tmax [2, 15]: 0.42 h
half-life [2, 16]: 1.45 h
AUC(0-t) [2, 17]: 7490 ng·h/mL
half-life ([2]; male, ICR, mouse, plasma, po, 5 mg/kg, oral intragastric administration 5 mg/kg, read-out: half-life (converted)): 1.45 h
